Reference: patent publication US10034886B2, “GLP-1 receptor modulators” (Celgene International II SÀRL, priority 2014, dated 2018)

Molecular target: T1, GLP-1R (Homo sapiens, UniProt P43220)
T1 construct: host or cells: GLP-1R CRE-bla CHO-K1 cells
Experiment: EC20 GLP-1(9-36) PAM cAMP assay: dose response of compound in the presence of fixed concentration of GLP-1(9-36)
Type: cell-based
Settings: GLP-1R CRE-bla CHO-K1 cells, compound dose response with fixed concentration of GLP-1(9-36), read-out: EC20 GLP-1(9-36) PAM EC50
In short: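 GLP-1R CRE-bla CHO-K1 cells treated 30 min at 37 °C with 12-point compound dose response plus fixed EC20 GLP-1(9-36), with IBMX, in HBSS/HEPES/0.1% BSA pH 7.4. Total cAMP measured by luminescent detection against standard curve; EC50 and Emax from non-linear regression.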

T1 sequence (P43220 24-463): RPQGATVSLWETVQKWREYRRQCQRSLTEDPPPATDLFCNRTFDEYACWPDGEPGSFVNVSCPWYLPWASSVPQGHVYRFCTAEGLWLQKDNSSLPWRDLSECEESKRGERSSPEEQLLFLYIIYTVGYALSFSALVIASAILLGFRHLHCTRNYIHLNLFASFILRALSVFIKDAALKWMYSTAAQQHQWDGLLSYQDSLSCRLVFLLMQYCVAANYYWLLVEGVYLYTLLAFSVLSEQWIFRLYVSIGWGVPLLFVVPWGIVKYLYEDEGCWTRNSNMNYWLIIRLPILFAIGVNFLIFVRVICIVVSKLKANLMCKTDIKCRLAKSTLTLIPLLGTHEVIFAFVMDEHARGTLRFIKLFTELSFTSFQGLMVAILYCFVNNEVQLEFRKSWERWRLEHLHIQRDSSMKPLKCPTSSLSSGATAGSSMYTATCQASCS
T1 sequence (P01275 100-127 partner limits assumed): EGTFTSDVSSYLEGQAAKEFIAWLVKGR

| SMILES | EC50 [nM] |
| --- | --- |
| CC[C@H]1CC[C@H](c2ccc(-c3cnc(-c4ccc(C[C@H](NC(=O)c5ccc(C(C)(C)C)s5)C(=O)N5C6CCC5C(C(=O)O)C6)cc4)nc3)cc2)CC1 (stereo partly shown) [Compound 1321] | 800 to 2500 |
| CCC[C@H]1CC[C@H](c2ccc(-c3cnc(-c4ccc(C[C@H](NC(=O)c5ccc(C(C)(C)C)s5)C(=O)O)cc4)nc3)cc2)CC1 [Compound 1346] | < 800 |
| CC(C)(C)c1ccc(C(=O)N[C@@H](Cc2ccc(-c3ncc(-c4ccc(-c5cccc(C#N)c5)cc4F)cn3)cc2)C(=O)N2CC(C(=O)O)C2)s1 [Compound 1202] | 5000 to 10000 |
| C[C@@H](NC(=O)[C@H](Cc1ccc(-c2ncc(/C=C/c3ccc(Cl)cc3)cn2)cc1)NC(=O)c1ccc(C(C)(C)C)s1)C(=O)O [Compound 1250] | 800 to 2500 |
| C[C@@H](NC(=O)[C@H](Cc1ccc(-c2ncc(N3CCN(CC4CCCCC4)C3=O)cn2)cc1)NC(=O)c1ccc(C(C)(C)C)s1)C(=O)O [Compound 1267] | 5000 to 10000 |
| CCC[C@H]1CC[C@H](C2CCN(c3cnc(-c4ccc(C[C@H](NC(=O)c5ccc(C(C)(C)C)s5)C(=O)NC(CN(C)C)C(=O)O)cc4)nc3)CC2)CC1 (stereo partly shown) [Compound 1459] | < 800 |
| CC(C)(C)c1ccc(C(=O)N[C@@H](Cc2ccc(-c3ncc(-c4ccc(-c5ccc(F)cc5)cc4)cn3)cc2)C(=O)O)s1 [Compound 1354] | 2500 to 5000 |
| CCc1ccc(C(=O)N[C@@H](Cc2ccc(-c3ncc(-c4ccc([C@H]5CC[C@H](CC)CC5)cc4)cn3)cc2)C(=O)O)cc1 [Compound 1370] | 800 to 2500 |
| CCCc1ccc(-c2ccc(-c3cnc(-c4ccc(C[C@H](NC(=O)c5ccc(C(C)(C)C)s5)C(=O)N[C@H](C)C(=O)O)cc4)nc3)c(F)c2)cc1 [Compound 1320] | < 800 |
| CC[C@H]1CC[C@H](c2ccc(-c3cnc(-c4ccc(C[C@H](NC(=O)c5ccc(C)s5)C(=O)O)cc4)nc3)cc2)CC1 [Compound 1385] | 5000 to 10000 |
| CC[C@H]1CC[C@H](c2ccc(-c3cnc(-c4ccc(C[C@H](NC(=O)c5cnn(C(C)(C)C)c5)C(=O)O)cc4)nc3)cc2)CC1 [Compound 1378] | < 800 |
| CCC[C@H]1CC[C@H](C2CCN(c3cnc(-c4ccc(C[C@H](NC(=O)c5ccc(C(C)(C)C)s5)C(=O)N5CC(C(=O)O)C5)cc4)nc3)CC2)CC1 [Compound 1413, 1-((S)-2-(5-(tert-butyl)thiophene-2-carboxamido)-3-(4-(5-(4-((1s,4r)-4-propylcyclohexyl)piperidin-1-yl)pyrimidin-2-yl)phenyl)propanoyl)azetidine-3-carboxylic acid] | < 800 |
| COc1ccc(-c2ccc(-c3cnc(-c4ccc(C[C@H](NC(=O)c5ccc(C(C)(C)C)s5)C(=O)N5CC(C(=O)O)C5)cc4)nc3)c(F)c2)cc1 [Compound 1329] | < 800 |
| CCOc1ccc(-c2ccc(-c3cnc(-c4ccc(C[C@H](NC(=O)c5ccc(C(C)(C)C)s5)C(=O)N[C@H](C)C(=O)O)cc4)nc3)cc2)cc1 [Compound 1287] | 800 to 2500 |

Same assay, conditions: dose response of compound in presence of fixed concentration of GLP-1(9-36), GLP-1R CRE-bla CHO-K1 cells, read-out: EC20 GLP-1(9-36) PAM EC50

| SMILES | EC50 [nM] |
| --- | --- |
| CCCCCCCOc1ccc(-c2cnc(-c3ccc(C[C@H](NC(=O)c4ccc(C(C)(C)C)s4)C(=O)N4C5CCC4C(C(=O)O)C5)cc3)nc2)cc1 (stereo partly shown) [Compound 1049] | 800 to 2500 |
| CCCCCCCOc1ccc(-c2cnc(-c3ccc(C[C@H](NC(=O)c4ccc(C5(C)CC5)cc4)C(=O)N4CCC[C@H]4C(=O)O)cc3)nc2)cc1 [Compound 1083] | 800 to 2500 |
| CCCCCCCOc1ccc(-c2cnc(-c3ccc(C[C@H](NC(=O)c4ccc(C(C)(C)C)cc4)C(=O)NC(CCCC(=O)O)C(=O)O)cc3)nc2)cc1 (stereo partly shown) [Compound 573] | 800 to 2500 |
| CCCCCCCOc1ccc(-c2cnc(-c3ccc(C[C@H](NC(=O)c4ccc(C(C)(C)C)s4)C(=O)NC(C(=O)O)C(O)C4CCCCC4)cc3)nc2)cc1 (stereo partly shown) [Compound 914] | 2500 to 5000 |
| CCCCCCCOc1ccc(-c2cnc(-c3ccc(CC(NC(=O)c4ccc(C(C)(C)C)s4)C(=O)N4CC(C(=O)O)C4)cc3)nc2)cc1 (stereo not shown) [Compound 431] | < 800 |
| CCCCCCCOc1ccc(-c2cnc(-c3ccc(C[C@H](NC(=O)c4ccc(OCCC)cc4)C(=O)N4CC(C(=O)O)C4)cc3)nc2)cc1 [Compound 1105] | 2500 to 5000 |
| CCCCCCCOc1ccc(-c2cnc(-c3ccc(C[C@H](NC(=O)c4ccc(C(C)C)cc4)C(=O)N4CC[C@H](C(=O)O)C4)cc3)nc2)cc1 [Compound 844] | 800 to 2500 |
| C[C@@H](NC(=O)[C@H](Cc1ccc(-c2ncc(-c3ccc(C(F)(F)F)cc3)cn2)cc1)NC(=O)c1ccc(C(C)(C)C)cc1)C(=O)O [Compound 728] | 800 to 2500 |
| CCc1ccc(/C=C/c2cnc(-c3ccc(C[C@H](NC(=O)c4ccc(C(C)(C)C)s4)C(=O)N4CC[C@H](C(=O)O)C4)cc3)nc2)cc1 [Compound 1086] | 800 to 2500 |
| CCCCCCCOc1ccc(-c2cnc(-c3ccc(C[C@H](NC(=O)c4ccc(CCC)cc4)C(=O)N[C@H](C)C(=O)O)cc3)nc2)cc1 [Compound 830] | 5000 to 10000 |
| CCCCCCCOc1ccc(-c2cnc(-c3ccc(C[C@H](NC(=O)c4ccc(C(C)(C)C)s4)C(=O)NC4CC(N)C4)cc3)nc2)cc1 (stereo partly shown) [Compound 603] | 800 to 2500 |
| CCCCCCCOc1ccc(-c2cnc(-c3ccc(C[C@H](NC(=O)c4ccc(C(C)(C)C)s4)C(=O)NC(C(=O)O)C(O)c4ccc(Cl)c(Cl)c4)cc3)nc2)cc1 (stereo partly shown) [Compound 905] | 5000 to 10000 |
| Cc1cc(-c2ccc(-c3cnc(-c4ccc(C[C@H](NC(=O)c5ccc(C(C)(C)C)s5)C(=O)N[C@H](C)C(=O)O)cc4)nc3)c(F)c2)ccc1OC(F)(F)F [Compound 1175] | < 800 |
| CCCCCCCOc1ccc(-c2cnc(-c3ccc(C[C@H](NC(=O)c4ccc(C(C)(C)C)s4)C(=O)N4C(C(=O)O)CCC4C(=O)O)cc3)nc2)cc1 (stereo partly shown) [Compound 614] | 800 to 2500 |
| CCCCCCCOc1ccc(-c2cnc(-c3ccc(C[C@H](NC(=O)c4ccc(C(C)(C)C)s4)C(=O)N[C@@H](Cn4cccn4)C(=O)O)cc3)nc2)cc1 [Compound 594] | < 800 |
| CCCCCCCOc1ccc(-c2cnc(-c3ccc(C[C@H](NC(=O)c4ccc(C(C)(C)C)s4)C(=O)NC(C(=O)O)[C@@H](C)c4ccccc4)cc3)nc2)cc1 (stereo partly shown) [Compound 897] | 5000 to 10000 |
| COc1ccc(-c2cnc(-c3ccc(C[C@H](NC(=O)c4ccc(C(C)(C)C)s4)C(=O)N[C@H](C)C(=O)O)cc3)nc2)c(F)c1OCC(C)C [Compound 1003] | 5000 to 10000 |
| CCCCCCCOc1ccc(-c2cnc(-c3ccc(C[C@H](NC(=O)c4ccc(C(C)(C)C)s4)C(=O)N[C@H](C(=O)O)C4CC4)cc3)nc2)cc1 [Compound 405] | < 800 |

| SMILES | EC50 [nM] |
| --- | --- |
| CCCCCCCOc1ccc(-c2cnc(-c3ccc(C[C@H](NC(=O)c4ccc(C(C)C)cc4)C(=O)NC(C(=O)O)C(O)c4ccccc4)cc3)nc2)cc1 (stereo partly shown) [Compound 951] | 800 to 2500 |
| CCCOc1ccc(-c2cnc(-c3ccc(C[C@H](NC(=O)c4ccc(C(C)(C)C)s4)C(=O)N4CC(C(=O)O)C4)cc3)nc2)cc1 [Compound 785] | 2500 to 5000 |
| CCCCCCCOc1ccc(-c2cnc(-c3ccc(C[C@H](NC(=O)c4ccc(C(C)(C)C)s4)C(=O)N[C@H](Cc4ccccc4)C(=O)O)cc3)nc2)cc1 [Compound 647] | < 800 |
| C[C@@H](NC(=O)[C@H](Cc1ccc(-c2ncc(-c3ccc(C(F)(F)F)cc3)cn2)cc1)NC(=O)c1ccc(C(C)(C)C)s1)C(=O)O [Compound 742] | 2500 to 5000 |
| CCCCCCCOc1ccc(-c2cnc(-c3ccc(C[C@H](NC(=O)c4oc(C(C)(C)C)cc4C)C(=O)N4CC(C(=O)O)C4)cc3)nc2)cc1 [Compound 1101] | 800 to 2500 |
| CC(C)c1ccc(-c2cnc(-c3ccc(C[C@H](NC(=O)c4ccc(C(C)(C)C)s4)C(=O)N[C@H](C)C(=O)O)cc3)nc2)cc1 [Compound 1034] | 2500 to 5000 |
| CCCOc1ccc(-c2cnc(-c3ccc(C[C@H](NC(=O)c4ccc(C(C)(C)C)cc4)C(=O)N[C@H](C)C(=O)O)cc3)nc2)cc1 [Compound 722] | 800 to 2500 |
| C[C@@H](NC(=O)[C@H](Cc1ccc(-c2ncc(-c3ccc(-c4ccc(OC(F)(F)F)cc4F)cc3)cn2)cc1)NC(=O)c1ccc(C(C)(C)C)s1)C(=O)O [Compound 1146] | < 800 |
| CCCCCCCOc1ccc(-c2cnc(-c3ccc(C[C@H](NC(=O)c4ccc(C(C)(C)C)s4)C(=O)N[C@H](C(=O)O)[C@H](O)C(C)C)cc3)nc2)cc1 [Compound 881] | 800 to 2500 |
| CC(C)(C)c1ccc(C(=O)N[C@@H](Cc2ccc(-c3ncc(-c4ccc(OCC5CCCCC5)cc4)cn3)cc2)C(=O)NC(C(=O)O)C(O)c2ccccc2)s1 (stereo partly shown) [Compound 936] | 800 to 2500 |
| CCCCCCCOc1ccc(-c2cnc(-c3ccc(C[C@H](NC(=O)c4ccc(C(C)(C)C)s4)C(=O)N4CCC[C@H]4C(=O)O)cc3)nc2)cc1 [Compound 328, (S)-1-((S)-2-(5-(tert-butyl)thiophene-2-carboxamido)-3-(4-(5-(4-(heptyloxy)-phenyl)pyrimidin-2-yl)phenyl)propanoyl)pyrrolidine-2-carboxylic acid] | < 800 |
| CCc1ccc(/C=C/c2cnc(-c3ccc(C[C@H](NC(=O)c4ccc(C(C)(C)C)s4)C(=O)N[C@H](C)C(=O)O)cc3)nc2)cc1 [Compound 1055] | 2500 to 5000 |
| CCCCCCCOc1ccc(-c2cnc(-c3ccc(C[C@H](NC(=O)c4ccc(C(C)(C)C)c(OC)c4)C(=O)N4CC[C@H](C(=O)O)C4)cc3)nc2)cc1 [Compound 862] | 800 to 2500 |
| CCCCCCCOc1ccc(-c2cnc(-c3ccc(C[C@H](NC(=O)c4ccc(C(C)(C)C)cc4)C(=O)NC(CCC)C(=O)O)cc3)nc2)cc1 (stereo partly shown) [Compound 562] | < 800 |
| CCCCCCCOc1ccc(-c2cnc(-c3ccc(C[C@H](NC(=O)c4ccc(C(C)(C)C)cc4OCC)C(=O)N4CC(C(=O)O)C4)cc3)nc2)cc1 [Compound 1100] | 2500 to 5000 |
| CCc1ccc(/C=C/c2cnc(-c3ccc(C[C@H](NC(=O)c4ccc(C(C)(C)C)s4)C(=O)N4CCC[C@H]4C(=O)O)cc3)nc2)cc1 [Compound 1126] | 800 to 2500 |
| CC(C)(C)c1ccc(C(=O)N[C@@H](Cc2ccc(-c3ncc(-c4ccc(C(C)(C)C)cc4)cn3)cc2)C(=O)NCCC(=O)O)cc1 [Compound 675] | 5000 to 10000 |
